Measurements reported in PubChem BioAssay (NCI).
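48-hour exposure; five concentrations; linearly interpolated endpoints. Here, GI50 denotes the concentration required for 50% inhibition of growth. TGI denotes the concentration required for complete inhibition of growth.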

Experiments:
Experiment in all cases: DTP human tumour cell line panel, 48 h
A498 renal = tested on: A498 renal
HCT-15 colon = tested on: HCT-15 colon
HS 578T breast = tested on: HS 578T breast
M14 melanoma = tested on: M14 melanoma
MALME-3M melanoma = tested on: MALME-3M melanoma
MDA-MB-231 breast = tested on: MDA-MB-231 breast
NCI/ADR-RES ovarian = tested on: NCI/ADR-RES ovarian
PC-3 prostate = tested on: PC-3 prostate
SK-OV-3 ovarian = tested on: SK-OV-3 ovarian
UACC-257 melanoma = tested on: UACC-257 melanoma

| SMILES | TGI (A498 renal) [µM] | TGI (HCT-15 colon) [µM] | TGI (HS 578T breast) [µM] | TGI (M14 melanoma) [µM] | TGI (MALME-3M melanoma) [µM] | TGI (MDA-MB-231 breast) [µM] | TGI (NCI/ADR-RES ovarian) [µM] | TGI (PC-3 prostate) [µM] | TGI (SK-OV-3 ovarian) [µM] | TGI (UACC-257 melanoma) [µM] | GI50 (HS 578T breast) [µM] | GI50 (MDA-MB-231 breast) [µM] | GI50 (NCI/ADR-RES ovarian) [µM] | GI50 (PC-3 prostate) [µM] |
| --- | --- | --- | --- | --- | --- | --- | --- | --- | --- | --- | --- | --- | --- | --- |
| Cc1nnc2cc(C(=O)O)c3ccccc3n2c1=O | > 10 | > 10 | > 10 | > 10 | > 10 | > 10 | > 10 | > 10 | > 10 | > 10 | – | – | – | – |
| O=C(O)C(CCc1ccccn1)c1ccccc1 (centres undefined) | > 100 | > 100 | > 100 | > 100 | > 100 | > 100 | > 100 | > 100 | > 100 | > 100 | – | – | – | – |
| C#CCNC(Cc1cnc[nH]1)C(=O)O (centres undefined) | > 100 | > 100 | > 100 | > 100 | > 100 | > 100 | > 100 | > 100 | > 100 | > 100 | – | – | – | – |
| Cn1c(=O)c2c(-c3ccccc3)onc2n(C)c1=O | > 100 | > 100 | 75.6 | > 100 | > 100 | > 100 | > 100 | > 100 | > 100 | > 100 | – | – | – | – |
| Cc1csc2c1C(=O)c1ccsc1C2=O | 32.5 | 3.51 | 4.37 | 2.02 | 1.07 | 11 | 5.9 | 8.1 | 40.5 | 2.88 | – | – | – | – |
| Cc1cc(S(=O)(=O)Nc2nnc3c(C(F)(F)F)cc(Cl)cn23)c(S)cc1Cl | > 100 | > 100 | > 100 | > 100 | > 100 | > 100 | > 100 | > 100 | > 100 | > 100 | – | – | – | – |
| CCOC(=O)c1cc2c(OC(C)=O)ccc(OC(C)=O)c2s1 | 12.5 | 3.34 | 5.51 | 3.26 | 3.6 | 4.64 | 5.79 | 5.07 | 22.7 | 4.97 | – | – | – | – |
| Cc1cc(Cc2c(F)c(F)c(Cc3cc(C)no3)c(F)c2F)on1 | > 100 | > 100 | > 100 | > 100 | > 100 | > 100 | > 100 | > 100 | > 100 | > 100 | – | – | – | – |
| Clc1nc(-[n+]2ccc(-c3ccncc3)cc2)nc(Nc2ccccc2)c1Cl | > 100 | > 100 | > 100 | > 100 | > 100 | > 100 | > 100 | > 100 | > 100 | > 100 | – | – | – | – |
| C/C(=N\NC(N)=O)C(CN1CCCCC1)C(c1ccccc1)c1c(O)c2ccccc2oc1=O (centres undefined) | > 100 | > 100 | > 100 | > 100 | > 100 | > 100 | > 100 | > 100 | > 100 | > 100 | 79.4 | > 100 | > 100 | 95.3 |
| O=C(O)/C=C(/CC(=O)O)C(=O)O | 32.7 | 54 | 40.7 | 44.2 | 37.3 | 48 | 46.1 | 40.2 | 47.6 | > 100 | – | – | – | – |
| CCC1(CC)C(=O)CC[C@@]2(C)C1=CC[C@H]1[C@@H]3CC[C@H](O)[C@@]3(C)CC[C@@H]12 | 44.6 | > 100 | 72.6 | > 100 | > 100 | > 100 | > 100 | > 100 | > 100 | 82.6 | – | – | – | – |
| CCCCC[C@@H]1OCO[C@@]2(C)/C=C(C)/C=C/C(=O)O[C@H]([C@@H](C)[C@@H](O)[C@H](C)[C@@]3(O)C[C@@H](O[C@H]4C[C@@H](O)[C@H](O)[C@@H](C)O4)[C@H](C)[C@@H](C)O3)[C@@H](OC)/C=C/C=C(\C)C[C@@H]1[C@@H]2O (stereo in doubt) | 0.0829 | 7.17 | 50 | < 0.005 | 0.308 | 1.59 | 15.8 | 1.64 | 5.38 | < 0.005 | – | – | – | – |
